{
  "source": "patent US7863040B2",
  "about": "“Ready-to-use whole blood collection vessel” (Roche Diagnostics Operations, Inc., priority 2006, dated 2011)",
  "key": {"[1]": {"system": "erythrocytes", "test": "Visual evaluation of hemolysis (time until a clear solution is observed)", "format": "cell-based", "description": "Whether the conditions for differential hemolysis are appropriate can be easily and preferably determined by using the following standardized procedure. A whole blood sample with a hematocrit of 40 is diluted 1:10 and then mixed 1:1 with the candidate hemolysis reagent. The efficacy of a reagent for bringing about differential hemolysis is seen visually. Upon lysis of the erythrocytes the mixture becomes clear. If precipitation of sample constituents occurs the sample becomes turbid or viscous or both.\nAs indicated above, the conditions used in a method of differential hemolysis according to the present invention can easily be assessed visually. If a whole blood sample is incubated with an appropriate candidate reagent for differential hemolysis the minimal concentration required to hemolyze red blood cells can be recognized as the concentration rendering the turbid blood sample transparent or clear. The highest possible concentration is the one still leading to a transparent and non-viscous sample.\n(§1) Solution A: Fresh EDTA-stabilized whole blood is diluted with 0.15 molar sodium chloride solution in the ratio 1:10 (50 μL EDTA-blood plus 450 μL sodium chloride solution).\nIn the case of the addition of a second anion, e.g., iodine (1-Butyl-3-methylpyridiniumchloride/KJ) the stated salt is added in an equimolar amount.\nHemolysate is prepared by mixing solution A and B in equal volumes, e.g., 500 μL solution A plus 500 μL solution B.\nAfter mixing the hemolysate is inspected visually for turbidometry and clearness immediately after mixing, after 1 minute, 2, 5, 6, 7, 20 and 40 minutes. The time until a clear solution is observed is recorded."}, "[2]": {"system": "EDTA-anticoagulated whole blood", "test": "Processing of EDTA-anticoagulated whole blood in a tube with reagent for differential hemolysis (time to optically clear lysate)", "format": "cell-based", "description": "This reagent for differential hemolysis thus has a concentration of about 25% BMPBF4. […] 250 microliter of EDTA-anticoagulated whole blood is pipetted into a vial containing 5 milliliter of this lysis reagent. For hemolysis the content of the tube is gently mixed by shaking. An optically clear lysate is obtained within five minutes. The lysate is stored at 4° C. Stability of the lysate is inspected after 1, 4 and 7 days by visual inspection. […] This reagent for differential hemolysis thus has a concentration of about 2% Me-octPCl. 250 microliter of EDTA-anticoagulated whole blood is pipetted into a vial containing 5 milliliter of this lysis reagent. For hemolysis the content of the tube is gently mixed by shaking. An optically clear lysate is obtained within five minutes. The lysate is stored at 4° C. Stability of the lysate is inspected after 1, 4 and 7 days by visual inspection. […] This reagent for differential hemolysis has a concentration of about 15% Me-octPCl. […] For hemolysis the content of the tube is gently mixed by shaking. An optically clear lysate is obtained within five minutes. The lysate is stored at 4° C. Stability of the lysate is inspected after 1, and 2 days by visual inspection. […] This reagent for differential hemolysis has a concentration of about 10% COMPCl. […]"}, "[3]": {"system": "erythrocytes", "test": "Microscopic evaluation of hemolysis, Trypane blue staining", "format": "cell-based", "conditions": "1 in 10 diluted whole blood, reagent 25%", "description": "The integrity of red blood cells can for example be easily assessed by appropriate life stains. In a preferred embodiment according to the present invention trypane blue is used in order to assess the integrity of a red blood cell membrane. […] The membrane integrity of a red blood cell is easily assessed under the microscope after staining a sample with trypane blue. The percentage of disrupted red blood cells is calculated by counting intact red blood cells before and after the treatment, by then dividing the first number by the latter number and by then multiplying this value by 100. Red blood cells that are solubilized are referred to as lyzed red blood cells or as lyzed erythrocytes.\nas §1\nSolution B: A solution of the hemolysis reagent in 0.15 molar sodium chloride is prepared where the concentration of the hemolysis reagent is twice as high as the desired final concentration in the hemolysate, e.g., to get a final concentration of 25% of 1-Butyl-4-methylpyridinium tetrafluoroborate a solution of 50% ([…] plus 50 mL 0.15 molar sodium chloride in water) is prepared. […]"}, "[4]": {"system": "erythrocytes", "test": "Microscopic evaluation of hemolysis, May-Grünwald staining", "format": "cell-based", "description": "Solution A: Fresh EDTA-stabilized whole blood is diluted with 0.15 molar sodium chloride solution in the ratio 1:10 (50 μL EDTA-blood plus 450 μL sodium chloride solution). Solution B: […] Hemolysate is prepared by mixing solution A and B in equal volumes, e.g., 20 μL solution A plus 20 μL solution B After mixing of the hemolysate a droplet is smeared on a microscope slide, air dried at room temperature and stained with May-Grünwald staining reagent (Merck Cat. No. 1.01424 May-Grünwald's Eosin Methylene Blue Solution). […] Microscopy is performed by oil immersion light microscopy (magnification ×630)."}, "[5]": {"conditions": "in vivo; cited from earlier work"}, "[6]": {"conditions": "cited from earlier work"}, "[7]": {"conditions": "final concentration 25% (weight/volume), whole blood final dilution 1:20"}, "[8]": {"conditions": "final concentration 12.5% (weight/volume)"}},
  "data": [
    {"smiles": "CCCC[n+]1cccc(C)c1.[Cl-]", "note": "[1-Butyl-3-methyl pyridiniumchloride, 1-Butyl-3-methylpyridiniumchloride]", "values": [
      {"measurement": "clear after (min.)", "setting": "[1]; [7]", "value": "turbid"}
    ]},
    {"smiles": "CCCCn1cc[n+](C)c1.F[B-](F)(F)F", "note": "[1-Butyl-3-methyl-imidazolium tetrafluoroborate]", "values": [
      {"measurement": "clear after", "setting": "[1]; [7]", "value": 20, "unit": "min"}
    ]},
    {"smiles": "CCCC[n+]1ccc(C)cc1.F[B-](F)(F)F", "note": "[1-Butyl-4-methylpyridinium tetrafluoroborate]", "values": [
      {"measurement": "time until optically clear lysate is obtained", "setting": "[2]; 250 microliter blood into 5 milliliter reagent, about 25% BMPBF4", "value": "five"},
      {"measurement": "clear after (min.)", "setting": "[1]; final concentration 6% (weight/volume)", "value": "Turbid"},
      {"measurement": "clear after", "setting": "[1]; [8]", "value": 40, "unit": "min"},
      {"measurement": "clear after", "setting": "[1]; [7]", "value": 20, "unit": "min"},
      {"measurement": "Light microscopy of hemolyzed whole blood, Trypane blue staining", "setting": "[3]; 2.5 min incubation time", "value": "Only few residual erythrocytes are left"},
      {"measurement": "Light microscopy of hemolyzed whole blood, Trypane blue staining", "setting": "[3]; 15 min incubation time", "value": "No erythrocytes or membranes are left"},
      {"measurement": "Light microscopy of hemolyzed whole blood, May-Grünwald staining", "setting": "[4]; 1 in 10 diluted whole blood, reagent 25%", "value": "No erythrocytes or membranes are left, nuclei are still intact"}
    ]},
    {"smiles": "CCCCCC[n+]1ccccc1.[Cl-]", "note": "[1-Hexylpyridiniumchloride]", "values": [
      {"measurement": "clear after (min.)", "setting": "[1]; [8]", "value": "turbid"},
      {"measurement": "clear after", "setting": "[1]; [7]", "value": 7, "unit": "min"}
    ]},
    {"smiles": "CCCCCCCC[N+]1(C)CCCC1.[Cl-]", "note": "[1-Methyl-1-octyl pyrrolidiniumchloride]", "values": [
      {"measurement": "clear after (min.)", "setting": "[1]; final concentration 2.5% (weight/volume)", "value": "turbid"},
      {"measurement": "clear after (min.)", "setting": "[1]; [7]", "value": "immediately"}
    ]},
    {"smiles": "CCCCCCCCOC[n+]1cccc(C(N)=O)c1.[Cl-]", "note": "[3-Carbamoyl-1-octyloxymethyl pyridiniumchloride]", "values": [
      {"measurement": "time until optically clear lysate is obtained", "setting": "[2]; 50 microliter blood into 130 microliter reagent, about 10% COMPCl", "value": "five"},
      {"measurement": "clear after (min.)", "setting": "[1]; final concentration 1.5% (weight/volume)", "value": "immediately"},
      {"measurement": "clear after (min.)", "setting": "[1]; final concentration 6.25% (weight/volume)", "value": "immediately"},
      {"measurement": "clear after (min.)", "setting": "[1]; [8]", "value": "immediately"}
    ]},
    {"smiles": "COc1c(C)c2c(c(O)c1C/C=C(\\C)CCC(=O)OCCN1CCOCC1)C(=O)OC2", "note": "[MMF, mycophenolate mofetil]", "values": [
      {"measurement": "therapeutic trough concentration", "setting": "[5]", "value": "1000 to 3500", "unit": "µg/L"}
    ]},
    {"smiles": "CCCCCCCC[n+]1ccccc1.[Cl-]", "note": "[N-Octylpyridiniumchloride]", "values": [
      {"measurement": "clear after", "setting": "[1]; [7]", "value": 2, "unit": "min"}
    ]},
    {"smiles": "C=CC[C@@H]1/C=C(\\C)C[C@H](C)C[C@H](OC)[C@H]2O[C@@](O)(C(=O)C(=O)N3CCCC[C@H]3C(=O)O[C@H](/C(C)=C/[C@@H]3CC[C@@H](O)[C@H](OC)C3)[C@H](C)[C@@H](O)CC1=O)[C@H](C)C[C@@H]2OC", "note": "[Tacrolimus, tacrolimus]", "values": [
      {"measurement": "potency relative to cyclosporin in vitro", "setting": "[6]", "value": "up to 100 times"},
      {"measurement": "therapeutic trough concentration", "setting": "[5]", "value": "5 to 20", "unit": "µg/L"}
    ]},
    {"smiles": "CCCCCCCCOS(=O)(=O)[O-].CCCCn1cc[n+](C)c1", "note": "[l-Butyl-3-methyl-imidazoliumoctylsulfate, 1-Butyl-3-methyl-imidazoliumoctylsulfate]", "values": [
      {"measurement": "clear after (min.)", "setting": "[1]; [7]", "value": "immediately"}
    ]},
    {"smiles": "CO[C@H]1C[C@@H]2CC[C@@H](C)[C@@](O)(O2)C(=O)C(=O)N2CCCC[C@H]2C(=O)O[C@H]([C@H](C)C[C@@H]2CC[C@@H](O)[C@H](OC)C2)CC(=O)[C@H](C)/C=C(\\C)[C@@H](O)[C@@H](OC)C(=O)[C@H](C)C[C@H](C)/C=C/C=C/C=C/1C", "note": "[sirolimus, rapamycin]", "values": [
      {"measurement": "therapeutic trough concentration", "setting": "[5]", "value": "5 to 15", "unit": "µg/L"}
    ]},
    {"smiles": "O", "note": "[water, reference compound]", "values": [
      {"measurement": "Light microscopy of hemolyzed whole blood, May-Grünwald staining", "setting": "[4]; 1 in 10 diluted whole blood hemolyzed with water", "value": "Erythrocyte membranes and nuclei are visible"}
    ]}
  ]
}
